Where two headings read alike, the source gives them in different places.
Tests used:
α2β2-nAChR = α2β2-nAChR (Rattus norvegicus, UniProt P12389+P12390); assay: Heteromeric nAChR binding, transfected HEK293 membranes, [3H]epibatidine
[1] = format: in vivo; conditions: mice, i.v.
α7-nAChR [2] = biological target: T1, α7-nAChR (Mus musculus, UniProt P49582); design: species or system CD-1 mice; conditions: in vivo
α7-nAChR [3] = biological target: T1, α7-nAChR; assay: Blocking of [18F]7a with non-α7-nAChR CNS drugs in CD-1 mice; format: in vivo; conditions: 2 mg/kg, s.c., 10 min before radiotracer, 90 min after tracer
α7-nAChR [4] = conditions: read-out: α7-nAChR Ki, cited from earlier work
α7-nAChR [5] = biological target: T2, α7-nAChR (Rattus norvegicus, UniProt Q05941); assay: biochemical; format: binding; conditions: two independent assays, each in duplicate
α7-nAChR [6] = biological target: T1, α7-nAChR; conditions: in vivo
α7-nAChR [7] = biological target: T2, α7-nAChR; conditions: read-out: KD of radiotracer at α7-nAChR; cited from earlier work

T1 sequence (P49582 23-502): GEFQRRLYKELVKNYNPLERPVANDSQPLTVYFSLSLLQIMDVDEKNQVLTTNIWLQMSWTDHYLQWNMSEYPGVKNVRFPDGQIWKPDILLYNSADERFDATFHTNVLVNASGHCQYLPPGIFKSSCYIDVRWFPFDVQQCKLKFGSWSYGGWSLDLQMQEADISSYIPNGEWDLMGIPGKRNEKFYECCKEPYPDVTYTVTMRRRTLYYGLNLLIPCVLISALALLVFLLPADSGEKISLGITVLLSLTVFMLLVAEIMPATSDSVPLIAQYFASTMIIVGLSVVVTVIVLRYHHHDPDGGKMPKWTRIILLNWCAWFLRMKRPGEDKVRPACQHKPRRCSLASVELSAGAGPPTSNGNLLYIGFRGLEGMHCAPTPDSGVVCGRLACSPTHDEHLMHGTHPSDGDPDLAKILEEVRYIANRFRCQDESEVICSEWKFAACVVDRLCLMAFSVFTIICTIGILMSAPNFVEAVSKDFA
Sequence of α2β2-nAChR (P12389 28-511): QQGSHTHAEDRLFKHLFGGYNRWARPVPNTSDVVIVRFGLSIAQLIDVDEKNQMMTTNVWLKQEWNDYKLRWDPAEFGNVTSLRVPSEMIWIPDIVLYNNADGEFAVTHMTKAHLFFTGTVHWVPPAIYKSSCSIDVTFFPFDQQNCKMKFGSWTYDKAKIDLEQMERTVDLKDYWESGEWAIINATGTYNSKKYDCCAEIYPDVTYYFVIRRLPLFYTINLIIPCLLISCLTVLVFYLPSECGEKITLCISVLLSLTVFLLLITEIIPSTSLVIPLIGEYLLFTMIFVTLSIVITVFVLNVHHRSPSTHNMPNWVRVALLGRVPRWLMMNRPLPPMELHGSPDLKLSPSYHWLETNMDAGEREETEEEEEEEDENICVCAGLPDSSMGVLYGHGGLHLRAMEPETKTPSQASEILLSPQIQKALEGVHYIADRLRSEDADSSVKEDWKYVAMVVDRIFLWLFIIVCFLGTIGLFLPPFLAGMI
Sequence of α2β2-nAChR (P12390 25-500): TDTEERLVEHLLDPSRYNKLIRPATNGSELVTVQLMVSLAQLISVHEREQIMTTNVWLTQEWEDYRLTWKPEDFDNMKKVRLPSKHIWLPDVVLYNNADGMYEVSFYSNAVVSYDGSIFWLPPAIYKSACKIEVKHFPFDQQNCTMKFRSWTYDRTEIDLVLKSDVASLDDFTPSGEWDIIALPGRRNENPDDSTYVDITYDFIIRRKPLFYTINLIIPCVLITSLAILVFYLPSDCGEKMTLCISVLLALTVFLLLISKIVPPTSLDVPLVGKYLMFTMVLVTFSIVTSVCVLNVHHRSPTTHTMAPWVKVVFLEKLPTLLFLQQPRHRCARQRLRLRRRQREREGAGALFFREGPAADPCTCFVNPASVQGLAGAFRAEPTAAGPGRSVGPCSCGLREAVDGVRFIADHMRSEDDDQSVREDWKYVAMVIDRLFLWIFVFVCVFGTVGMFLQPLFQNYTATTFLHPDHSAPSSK
T2 sequence (Q05941 23-502): as the sequence (P49582 23-502) above, with T402A counted along it

Compound: O=S1(=O)c2cc(N3CCN4CCC3CC4)ccc2-c2cccc(F)c21 [7a, 3-(1,4-Diazabicyclo[3.2.2]nonan-4-yl)-6-fluorodibenzo[b,d]thiophene 5,5-dioxide]
- Ki (α2β2-nAChR; read-out: α2β2 Ki, stably transfected HEK293 cells, [3H]epibatidine 0.5 nM): > 10000 nM
- behavioral or locomotor activity changes ([1]; 0.3 mg/kg): Neither behavioral nor locomotor activity changes were observed

Compound: O=S1(=O)c2ccc(F)cc2-c2ccc(N3CCN4CCC3CC4)cc21 [7c, 7-(1,4-Diazabicyclo[3.2.2]nonan-4-yl)-2-fluorodibenzo[b,d]thiophene 5,5-dioxide]
- behavioral or locomotor activity changes ([1]; 0.2 mg/kg): Neither behavioral nor locomotor activity changes were observed

Compound: O=S1(=O)c2ccccc2-c2c(N3CCN4CCC3CC4)ccc(F)c21 [7e, 1-(1,4-Diazabicyclo[3.2.2]nonan-4-yl)-4-fluorodibenzo[b,d]thiophene 5,5-dioxide]
- Ki (α2β2-nAChR): > 10000 nM

Compound: O=C(Oc1ccc(Br)cc1)N1CCN2CCC1CC2 [compound 1]
- blockade of [18F]7a binding in mouse brain (α7-nAChR [2]): dose dependent blockade in all regions studied
- effect on accumulation of [18F]7a in mouse brain regions (α7-nAChR [3]): reduced accumulation of radioactivity
- Ki (α7-nAChR [4]; ref [58]): 22 nM

Compound: O=S1(=O)c2ccccc2-c2ccc(N3CCN4CCC3CC4)cc21 [compound 5, 3-(1,4-diazabicyclo[3.2.2]nonan-4-yl)dibenzo[b,d]thiophene 5,5-dioxide]
- blockade of [18F]7c accumulation in mouse brain (α7-nAChR [2]): Dose dependent blockade
- Ki (α7-nAChR [4]): 0.023 nM

Compound: O=S1(=O)c2cc(N3CCN4CCC3CC4)ccc2-c2cccc(I)c21 [compound 14, 3-(1,4-Diazabicyclo[3.2.2]nonan-4-yl)-6-iododibenzo[b,d]thiophene 5,5-dioxide]
- Ki (α7-nAChR [5]): 1.93 nM

Compound: O=c1cccc2n1C[C@@H]1CNC[C@H]2C1 [cytisine]
- blockade of [18F]7a accumulation in mouse brain (α7-nAChR [6]): insignificant reduction of radioactivity accumulation in all regions studied

Compound: CN1CCC[C@H]1c1cccnc1 [nicotine]
- blockade of [18F]7a accumulation in mouse brain (α7-nAChR [6]): significant blockade in all regions, except the nAChR-poor cerebellum

Compound: Cc1nccn1CC1CCc2c(c3ccccc3n2C)C1=O (centres unmarked) [ondansetron, Ondansetron]
- effect on accumulation of [18F]7a in mouse brain regions (α7-nAChR [3]): absence of blockade

Compound: [^125I]α-Bungarotoxin
- Kd (α7-nAChR [7]): 0.7 nM

— paper PMC3866913 (Journal of medicinal chemistry, 2013)
